Measurements taken from patent US20240082228A1, “SARS-COV-2 THERAPEUTICS” (priority 2021, published 2024).
Where “and” joins values, the source holds several entries; their conditions need not be identical. Identical values can stand only once. Like-named read-outs stand apart in the source and are kept apart here.

What was measured:
[1] = for Average Cell Number (1 uM) / Cell Number (1 uM) / Normalized Cell Number (1 uM): compound at 1 uM; for Average Cell Number (1 uM) / Average Cell Number (5 uM): average of normalized cell number, n=3, relative to DMSO; for Cell Number (1 uM) / Normalized Cell Number (1 uM) / Cell Number (5 uM) / Normalized Cell Number (5 uM): single replicate; for Cell Number (1 uM) / Cell Number (5 uM): raw cell count; for Normalized Cell Number (1 uM) / Normalized Cell Number (5 uM): relative to negative control DMSO; for Average Cell Number (5 uM) / Cell Number (5 uM) / Normalized Cell Number (5 uM): compound at 5 uM
SARS-CoV-2 = test: microbe, parasite or virus in culture; format: cell-based; settings: for % Infection (1 uM) / % Infection (5 uM): single replicate of triplicate; for Normalized Infection (1 uM) / log2FC Infection (1 uM) / Normalized Infection (5 uM) / log2FC Infection (5 uM) / activity at 1 µM / activity at 5 µM: single replicate, relative to negative control DMSO; for HIT: overall, 1 or 5 uM; for activity at 1 µM: Severe acute respiratory syndrome coronavirus 2, 1 uM, read-out: Normalized Infection (1 uM); for activity at 5 µM: Severe acute respiratory syndrome coronavirus 2, 5 uM, read-out: Normalized Infection (5 uM)
[2] = 1 uM, average log2FC infection (n=3) relative to DMSO
[3] = 5 uM, average log2FC infection (n=3) relative to DMSO

Compound | Toxic (1 uM) [1] | Toxic (5 uM) [1] | Average Cell Number (1 uM) [1] | Cell Number (1 uM) [1] | Normalized Cell Number (1 uM) [1] | Average Cell Number (5 uM) [1] | Cell Number (5 uM) [1] | Normalized Cell Number (5 uM) [1] | Average Infection (1 uM) (SARS-CoV-2) | Average Infection (5 uM) (SARS-CoV-2) | HIT (2 Std, 1 uM) (SARS-CoV-2; 1 uM) | HIT (SARS-CoV-2) | Average Infection (1 uM) (SARS-CoV-2; [2]) | HIT (2 Stdv, 5 uM) (SARS-CoV-2; 5 uM) | Average Infection (5 uM) (SARS-CoV-2; [3]) | activity at 1 µM (SARS-CoV-2) | activity at 5 µM (SARS-CoV-2) | other results
CC(C)C[C@@H](NC(=O)[C@H](Cc1ccccc1)NC(=O)CNC(=O)[C@@H](C)NC(=O)[C@@H](N)Cc1ccc(O)cc1)C(=O)O [DADLE, L-Tyrosyl-D-alanylglycyl-L-phenylalanyl-D-leucine] | 0 (non-toxic (Normalized Cell number>0.65) | 0 (non-toxic (Normalized Cell number>0.65) | 0.7534 | 4511 and 4466 and 4268 | 0.7698 and 0.7621 and 0.7283 | 0.9869 | 5991 and 5664 and 5891 | 1.011 and 0.9558 and 0.9941 | −0.6223 | −0.2501 | HIT | Yes | – | – | – | – | – | % Infection (1 uM) (SARS-CoV-2; 1 uM): 17.22% and 16.52% and 17.46%; Normalized Infection (1 uM) (SARS-CoV-2; 1 uM): 0.6557 and 0.6291 and 0.6645; log2FC Infection (1 uM) (SARS-CoV-2; 1 uM): −0.6088 and −0.6686 and −0.5896; % Infection (5 uM) (SARS-CoV-2; 5 uM): 13.22% and 10.81% and 15.19%; Normalized Infection (5 uM) (SARS-CoV-2; 5 uM): 0.8586 and 0.7017 and 0.9867; log2FC Infection (5 uM) (SARS-CoV-2; 5 uM): −0.22 and −0.511 and −0.01933
C[C@@H]1CN(Cc2ccc(F)cc2)[C@@H](C)CN1C(=O)c1cc2c(C(=O)C(=O)N(C)C)cn(C)c2cc1Cl [SCIO 469, talmapimod] | 0 (non-toxic (Normalized Cell number>0.65) | 0 (non-toxic (Normalized Cell number>0.65) | 0.7439 | 3987 and 4564 and 4526 | 0.6804 and 0.7788 and 0.7724 | 0.95 | 5672 and 5345 and 5872 | 0.9571 and 0.9019 and 0.9909 | – | – | HIT | Yes | −1.039 | HIT | −0.8454 | 47.9% | 57.5% | –
O=C(O)CNC(=O)C1C(=O)N(C2CCCCC2)C(=O)N(C2CCCCC2)C1=O [Daprodustat, daprodustat] | 0 (non-toxic (Normalized Cell number>0.65) | 0 (non-toxic (Normalized Cell number>0.65) | 0.7431 | 4292 and 4412 and 4360 | 0.7324 and 0.7529 and 0.744 | 0.9695 | 5964 and 5671 and 5601 | 1.006 and 0.9569 and 0.9451 | −0.8526 | −0.09093 | HIT | Yes | – | – | – | 57.7% | – | –
CC(C)N1CCN(Cc2cnc(-c3cc(-c4cccc5[nH]ccc45)cc4[nH]ncc34)o2)CC1 [GSK2269557, nemiralisib] | 0 (non-toxic (Normalized Cell number>0.65) | 0 (non-toxic (Normalized Cell number>0.65) | 0.8919 | 4831 and 5665 and 5184 | 0.8244 and 0.9667 and 0.8846 | 0.7914 | 4568 and 3831 and 5671 | 0.7708 and 0.6465 and 0.9569 | −0.7144 | −3.347 | HIT | Yes | – | HIT | – | – | – | % Infection (1 uM) (SARS-CoV-2; 1 uM): 17.26% and 15.32% and 15.51%; Normalized Infection (1 uM) (SARS-CoV-2; 1 uM): 0.6572 and 0.5833 and 0.5904; log2FC Infection (1 uM) (SARS-CoV-2; 1 uM): −0.6055 and −0.7776 and −0.7601; % Infection (5 uM) (SARS-CoV-2; 5 uM): 1.292% and 0.4698% and 5.713%; Normalized Infection (5 uM) (SARS-CoV-2; 5 uM): 0.08388 and 0.03051 and 0.371; log2FC Infection (5 uM) (SARS-CoV-2; 5 uM): −3.575 and −5.034 and −1.43
CS(=O)(=O)N1CCN(Cc2cc3nc(-c4cccc5[nH]ncc45)nc(N4CCOCC4)c3s2)CC1 [GDC-0941, pictilisib] | 0 (non-toxic (Normalized Cell number>0.65) | 0 (non-toxic (Normalized Cell number>0.65) | 0.7899 | 4447 and 4698 and 4741 | 0.7589 and 0.8017 and 0.809 | 0.8826 | 5415 and 4385 and 5891 | 0.9137 and 0.7399 and 0.9941 | – | – | HIT | Yes | −2.374 | HIT | −2.82 | 14.6% | – | –
CN(C)[C@@H]1C(O)=C(C(N)=O)C(=O)[C@@]2(O)C(O)=C3C(=O)c4c(O)cccc4[C@@](C)(O)[C@H]3[C@H](O)[C@@H]12 [Oxytetracycline, oxytetracycline] | 0 (non-toxic (Normalized Cell number>0.65) | 0 (non-toxic (Normalized Cell number>0.65) | 0.8352 | 5031 and 4848 and 4803 | 0.8585 and 0.8273 and 0.8196 | 0.976 | 6014 and 5768 and 5570 | 1.015 and 0.9733 and 0.9399 | – | – | HIT | Yes | −0.4729 | – | −0.1642 | 83.8% | – | –
CCC[C@H](N[C@@H](C)C(=O)N1[C@H](C(=O)O)C[C@@H]2CCCC[C@@H]21)C(=O)OCC [Perindopril, perindopril] | 0 (non-toxic (Normalized Cell number>0.65) | 0 (non-toxic (Normalized Cell number>0.65) | 0.7365 | 4330 and 4259 and 4358 | 0.7389 and 0.7268 and 0.7437 | 0.9903 | 5734 and 6091 and 5782 | 0.9676 and 1.028 and 0.9757 | – | – | HIT | Yes | −0.8775 | – | −0.1846 | 62.3% | 96.4% | –
CCCCN(CCCC)CCC(O)c1cc2c(Cl)cc(Cl)cc2c2cc(C(F)(F)F)ccc12 (stereo not shown) [Halofantrine lot −4, halofantrine] | 0 (non-toxic (Normalized Cell number>0.65) | 0 (non-toxic (Normalized Cell number>0.65) | 0.8035 | 4727 and 4541 and 4857 | 0.8067 and 0.7749 and 0.8288 | 0.6652 | – | – | – | – | HIT | Yes | −1.202 | HIT | −1.864 | 48.6% | 23.4% | –
CC(C)(C)c1cc(C(C)(C)C)c(NC(=O)c2c[nH]c3ccccc3c2=O)cc1O [Ivacaftor, ivacaftor] | – | 0 (non-toxic (Normalized Cell number>0.65) | 0.6354 | 3730 and 3662 and 3779 | 0.6365 and 0.6249 and 0.6449 | 0.735 | 4520 and 4563 and 3984 | 0.7627 and 0.77 and 0.6723 | −0.9235 | −0.9409 | HIT | Yes | – | HIT | – | 59.8% | 60.9% | –
lonafarnib | 0 (non-toxic (Normalized Cell number>0.65) | – | 0.6561 | 3801 and 4072 and 3662 | 0.6486 and 0.6949 and 0.6249 | 0.6416 | 3696 and 3879 and 3831 | 0.6546 and 0.6465 | −0.6667 | −1.3 | HIT | Yes | – | HIT | – | – | – | % Infection (1 uM) (SARS-CoV-2; 1 uM): 17.44% and 15.37%; Normalized Infection (1 uM) (SARS-CoV-2; 1 uM): 0.6641 and 0.5853; log2FC Infection (1 uM) (SARS-CoV-2; 1 uM): −0.5906 and −0.7727; % Infection (5 uM) (SARS-CoV-2; 5 uM): 6.304% and 5.672% and 6.839%; Normalized Infection (5 uM) (SARS-CoV-2; 5 uM): 0.4094 and 0.3683 and 0.4442; log2FC Infection (5 uM) (SARS-CoV-2; 5 uM): −1.288 and −1.441 and −1.171
N=C(N)c1ccc2nc(-c3cc(CC(=O)N[C@@H](CC(=O)O)C(=O)O)cc(-c4cc(S(N)(=O)=O)ccc4O)c3O)[nH]c2c1 [PCl 27483, pci-27483] | 0 (non-toxic (Normalized Cell number>0.65) | 0 (non-toxic (Normalized Cell number>0.65) | 0.775 | 4643 and 4781 and 4200 | 0.7923 and 0.8159 and 0.7167 | 0.9439 | 5909 and 5702 and 5170 | 0.9971 and 0.9622 and 0.8724 | – | – | HIT | Yes | −0.6789 | – | 0.006187 | 58% | 104% | –
CCCCC[C@H](O)/C=C/[C@@H]1[C@@H](C/C=C\CCCC(=O)O)[C@@H](O)C[C@H]1O [Prostagladin F2a, dinoprost] | – | – | 0.8973 | – | 0.8613 and 0.9247 and 0.906 | 0.9858 | – | 0.988 and 0.9765 and 0.9929 | – | – | HIT | Yes | −0.6806 | – | −0.2282 | 58.9% | 83.1% | –
